# Columns and labels:
# 5/6 nephrectomy rats [1] = assay: Histological mesangial expansion score of kidneys of 5/6 nephrectomised rats; assay type: in vivo, male Wistar rats; details: 4 months into the study (3 months of drug treatment); candesartan cilexetil 5 mg/kg/day p.o., BH4 10 mg/kg/day i.p.; untreated Nx 200, sham 0
# Experimental: Sixty male Wistar rats, mean weight 324±4 g, were fed a normal chow diet and allowed distilled water ad libitum. The 5/6 nephrectomy was performed according to standard protocol. In brief, the animals were anaesthetized with pentobarbital [35 mg/kg body weight (BW) intraperitoneally] and then underwent a right nephrectomy and ligature of two of the major branches of the left main renal artery (Nx) at day 0. AII the nephrectomies were carried out by one operator. The animals were then randomly assigned to one of five groups, as follows. • Group 1. SHAM (n=12); sham-operated rats. • Group 2. Nx (n=15); untreated 5/6 nephrectomy rats. • Group 3. […]
# Drug administration was begun 30 days after surgery (at a point when the nephrectomised rats have already developed hypertension and renal insufficiency). […] Systolic blood pressure (SBP) was measured in trained unstressed rats 1 day before surgery and at 30, 60, 90 and 120 days, by tail cuff manometry using an automated sphygmomanometer (Narco Bio Systems, Austin, Tex., USA). […]
# Kidneys were fixed in neutral buffered formalin and embedded in paraffin for light microscopic study. […] A semi-quantitative score was used to assess the severity of glomerular lesions (see Nephrol. Dial. Transplant. 8, 501-506 (1993), the disclosures of which document are hereby incorporated by reference). […]
# 5/6 nephrectomy rats [2] = assay: Survival of 5/6 nephrectomised rats at 4 months; assay type: in vivo, male Wistar rats; details: 4 months into the study (3 months of drug treatment); candesartan cilexetil 5 mg/kg/day p.o., BH4 10 mg/kg/day i.p.
# Experimental: Sixty male Wistar rats, mean weight 324±4 g, were fed a normal chow diet and allowed distilled water ad libitum. The 5/6 nephrectomy was performed according to standard protocol. In brief, the animals were anaesthetized with pentobarbital [35 mg/kg body weight (BW) intraperitoneally] and then underwent a right nephrectomy and ligature of two of the major branches of the left main renal artery (Nx) at day 0. AII the nephrectomies were carried out by one operator. The animals were then randomly assigned to one of five groups, as follows. • Group 1. SHAM (n=12); sham-operated rats. • Group 2. Nx (n=15); untreated 5/6 nephrectomy rats. • Group 3. C (n=11); 5/6 nephrectomy rats to which candesartan cilexetil (AstraZeneca AB) was given daily at a dose of 5 mg/kg BW/day. • Group 4. BH4 (n=10); 5/6 nephrectomy rats administered BH4 (Alexis Biochemical, Lausen), 10 mg/kg BW/day intraperitoneally (see Hypertension 38, 1044-1048 (2001), the disclosures of which document are hereby incorporated by reference). • Group 5. C+B (n=12); 5/6 nephrectomy rats to which candesartan cilexetil (AstraZeneca AB) was given daily at a dose of 5 mg/kg BW/day and BH4 (Alexis Biochemical, Lausen), was administered at a dose of 10 mg/kg BW/day intraperitoneally.
# Drug administration was begun 30 days after surgery (at a point when the nephrectomised rats have already developed hypertension and renal insufficiency). […] Systolic blood pressure (SBP) was measured in trained unstressed rats 1 day before surgery and at 30, 60, 90 and 120 days, by tail cuff manometry using an automated sphygmomanometer (Narco Bio Systems, Austin, Tex., USA). The Animal Care and Use Committee of Meir Hospital approved all procedures.
# Due to abnormalities found by way of post-study autopsies, two rats were excluded from the analysis of the “C+B” group (i.e. Group 5).
# At a point 4 months into the study (3 months of drug treatment for rats in groups 3 to 5), survival rates were as follows.
smiles,measurement,setting,value
"CCOc1nc2cccc(C(=O)OC(C)OC(=O)OC3CCCCC3)c2n1Cc1ccc(-c2ccccc2-c2nnn[nH]2)cc1 (centres unmarked) [candesartan cilexetil, 1-(cyclohexyloxycarbonyloxy)ethyl ester of candesartan]","ME Score (mesangial expansion score, median value)",5/6 nephrectomy rats [1],82
same,Survival (% age),5/6 nephrectomy rats [2],(63.64%)
same,Survival (surviving rats of group),5/6 nephrectomy rats [2],7 of 11
"C[C@H](O)[C@H](O)[C@H]1CNc2nc(N)[nH]c(=O)c2N1 [BH4, Tetrahydrobiopterin]","ME Score (mesangial expansion score, median value)",5/6 nephrectomy rats [1],158
same,Survival (% age),5/6 nephrectomy rats [2],(50%)

# Source: US20090281083A1, “Combination Product” (ASTRAZENECA AB, priority 2005, published 2009)
